# Source: publication PMC3972818 (Nature medicine, 2014)
# Key:
# [1] = test system: M. tuberculosis ATCC 35837; assay: microbe, parasite or virus in culture; assay type: cell-based; conditions: Mycobacterium tuberculosis, ATCC35837
# [2] = test system: M. tuberculosis H37Rv-HL-15; assay type: cell-based, Mycobacterium tuberculosis
# [3] = test system: M. tuberculosis ATCC 35822; assay type: cell-based, Mycobacterium tuberculosis
# [4] = test system: M. tuberculosis H37Rv-HL-14; assay type: cell-based, Mycobacterium tuberculosis
# [5] = test system: M. tuberculosis ATCC 35838; assay type: cell-based, Mycobacterium tuberculosis
# [6] = test system: M. tuberculosis ATCC 35820; assay type: cell-based, Mycobacterium tuberculosis
# [7] = test system: M. tuberculosis H37Rv; assay: MIC, microbroth dilution; assay type: cell-based; conditions: Mycobacterium tuberculosis
Structure (SMILES),MIC [1] [µg/mL],MIC [2] [µg/mL],MIC [3] [µg/mL],MIC [4] [µg/mL],MIC [5] [µg/mL],MIC [6] [µg/mL],MIC [7] [µg/mL]
CC[C@@H](CO)NCCN[C@@H](CC)CO [Ethambutol],> 25,,,,,,
"CN[C@@H]1[C@H](O)[C@H](NC)[C@H]2O[C@@]3(O)C(=O)C[C@@H](C)O[C@H]3O[C@@H]2[C@H]1O [Spectinomycin, spectinomycin]",100,>200,100,>200,100,200,100
"[H]/N=C(/N)N[C@H]1[C@H](O)[C@@H](O)[C@H](O[C@@H]2O[C@@H](C)[C@](O)(C=O)[C@H]2O[C@@H]2O[C@@H](CO)[C@H](O)[C@@H](O)[C@@H]2NC)[C@@H](N/C(N)=N\[H])[C@@H]1O [Streptomycin, streptomycin]",1.6,1.6,1.6,1.6,1.6,>200,1.6
